Test results published in article PMC3813382 (The Journal of General Physiology, 2013).
Substitutions are numbered along the chain they refer to.

How the values were obtained:
WT Slo2.1 channels [1] = molecular target: T1, WT Slo2.1 channels (Homo sapiens, UniProt Q6UVM3); conditions: 1 mM NFA; ref Dai et al., 2010; cited from earlier work
T1 sequence (Q6UVM3 1-1135): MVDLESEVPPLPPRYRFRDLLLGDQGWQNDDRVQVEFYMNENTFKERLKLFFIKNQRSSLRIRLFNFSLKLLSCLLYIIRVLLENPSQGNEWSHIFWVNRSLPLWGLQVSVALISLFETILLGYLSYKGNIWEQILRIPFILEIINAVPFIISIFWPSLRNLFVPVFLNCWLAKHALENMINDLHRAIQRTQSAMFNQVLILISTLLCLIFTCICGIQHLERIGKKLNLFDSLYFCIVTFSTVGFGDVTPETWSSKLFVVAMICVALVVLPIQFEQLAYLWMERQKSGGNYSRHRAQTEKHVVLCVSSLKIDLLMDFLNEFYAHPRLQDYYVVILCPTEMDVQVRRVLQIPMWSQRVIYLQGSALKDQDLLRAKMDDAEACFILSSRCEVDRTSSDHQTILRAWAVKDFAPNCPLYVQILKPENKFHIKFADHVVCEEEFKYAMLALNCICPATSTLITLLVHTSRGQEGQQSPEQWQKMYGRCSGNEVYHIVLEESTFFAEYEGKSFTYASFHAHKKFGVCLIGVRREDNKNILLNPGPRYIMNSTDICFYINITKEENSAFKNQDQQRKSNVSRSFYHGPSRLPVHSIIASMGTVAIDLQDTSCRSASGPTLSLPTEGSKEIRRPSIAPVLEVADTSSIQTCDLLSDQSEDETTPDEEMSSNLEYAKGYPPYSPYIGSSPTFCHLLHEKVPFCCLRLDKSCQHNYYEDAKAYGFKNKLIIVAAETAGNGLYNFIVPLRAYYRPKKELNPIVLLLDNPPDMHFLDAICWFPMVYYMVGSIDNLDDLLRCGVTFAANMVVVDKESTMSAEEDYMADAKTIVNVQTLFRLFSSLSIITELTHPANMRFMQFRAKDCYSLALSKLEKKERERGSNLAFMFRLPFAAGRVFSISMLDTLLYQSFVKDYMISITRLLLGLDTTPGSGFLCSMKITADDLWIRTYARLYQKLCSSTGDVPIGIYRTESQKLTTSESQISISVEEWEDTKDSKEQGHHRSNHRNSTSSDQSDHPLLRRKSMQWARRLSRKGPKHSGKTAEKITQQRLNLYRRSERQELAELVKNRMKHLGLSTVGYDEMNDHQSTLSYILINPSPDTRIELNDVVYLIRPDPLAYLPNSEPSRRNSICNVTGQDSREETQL

F240C Slo2.1 channels = molecular target: T2, F240C Slo2.1 channels (Homo sapiens, UniProt Q6UVM3, F240C); test: Activation of ISlo2.1 by NFA, two-electrode voltage clamp in oocytes; format: cell-based
T2 sequence (Q6UVM3 1-1135 F240C): T1 sequence (Q6UVM3 1-1135) with F240C

WT Slo2.1 channels [2] = molecular target: T1, WT Slo2.1 channels; test: as above; format: cell-based

## O=C(O)c1cccnc1Nc1cccc(C(F)(F)F)c1 [NFA, niflumic acid]
WT Slo2.1 channels [1]
  effective valence z: 0.48 e
  midpoint of voltage dependence of channel activation: +95 mV
F240C Slo2.1 channels; KCM211 solution ([K^+]e 2 mM)
  activation of F240C currents by NFA: not further activated by NFA
F240C Slo2.1 channels; [K^+]e elevated to 104 mM, 1 mM NFA
  activation of F240C currents by NFA: further activated by 1 mM NFA
WT Slo2.1 channels [2]
  EC50: 2100 ± 100 µM
WT Slo2.1 channels [2]; 6 mM NFA, oocytes injected with ≤1 ng WT cRNA
  time to peak response of ISlo2.1 during repetitive pulsing: ~3 min
